Target: p38 and MK2 (Homo sapiens, UniProt Q16539)
Format: binding
Settings: competitor 10 μM, LTR 2 500 nM, p38 400 nM, MK2 400 nM, UV 30 min

Chain of p38 and MK2 (Q16539 whole entry): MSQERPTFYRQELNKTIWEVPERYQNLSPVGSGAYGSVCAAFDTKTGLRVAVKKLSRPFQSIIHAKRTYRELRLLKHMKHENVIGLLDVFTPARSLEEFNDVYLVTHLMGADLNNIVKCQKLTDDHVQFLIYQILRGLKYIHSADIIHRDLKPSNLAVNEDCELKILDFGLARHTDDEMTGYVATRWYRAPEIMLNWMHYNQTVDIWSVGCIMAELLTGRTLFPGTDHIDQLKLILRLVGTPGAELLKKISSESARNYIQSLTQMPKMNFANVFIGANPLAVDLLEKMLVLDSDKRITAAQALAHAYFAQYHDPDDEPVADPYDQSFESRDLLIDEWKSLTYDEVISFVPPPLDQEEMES
Chain of p38 and MK2 (P49137 whole entry partner): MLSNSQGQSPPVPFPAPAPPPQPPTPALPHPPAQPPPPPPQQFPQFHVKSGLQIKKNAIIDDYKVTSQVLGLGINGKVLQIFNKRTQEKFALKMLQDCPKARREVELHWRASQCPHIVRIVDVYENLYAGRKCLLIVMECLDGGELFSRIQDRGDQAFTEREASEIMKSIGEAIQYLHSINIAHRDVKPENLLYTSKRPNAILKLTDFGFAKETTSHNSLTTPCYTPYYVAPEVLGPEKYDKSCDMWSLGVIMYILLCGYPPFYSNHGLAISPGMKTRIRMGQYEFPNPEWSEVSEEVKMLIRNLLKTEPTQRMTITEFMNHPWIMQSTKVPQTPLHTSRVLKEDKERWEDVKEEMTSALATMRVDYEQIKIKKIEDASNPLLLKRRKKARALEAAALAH

Row | blocking of labeling of p38 and MK2 | SMILES
1 | does not completely block labeling | Cc1nc(Nc2ncc(C(=O)Nc3c(C)cccc3Cl)s2)cc(N2CCN(CCO)CC2)n1 [dasatinib]
2 | do not block labeling | C#Cc1cccc(Nc2ncnc3cc(OCCOC)c(OCCOC)cc23)c1 [erlotinib]

Reference: publication PMC3762675 (Chembiochem : a European journal of chemical biology, 2013)
